For five molecules, IC50 and GI50 results are on record in patent US12006314B2, “Anti-cancer nuclear hormone receptor-targeting compounds” (Nuvation Bio Inc., priority 2021, dated 2024).

The target in assay [1] is T1, AR (cytosol from LnCaP cells) (Homo sapiens, UniProt P10275, T878A).
T1 construct: endogenous in cells; host or cells: LNCaP cytosol
T1 sequence (P10275 1-920 T878A): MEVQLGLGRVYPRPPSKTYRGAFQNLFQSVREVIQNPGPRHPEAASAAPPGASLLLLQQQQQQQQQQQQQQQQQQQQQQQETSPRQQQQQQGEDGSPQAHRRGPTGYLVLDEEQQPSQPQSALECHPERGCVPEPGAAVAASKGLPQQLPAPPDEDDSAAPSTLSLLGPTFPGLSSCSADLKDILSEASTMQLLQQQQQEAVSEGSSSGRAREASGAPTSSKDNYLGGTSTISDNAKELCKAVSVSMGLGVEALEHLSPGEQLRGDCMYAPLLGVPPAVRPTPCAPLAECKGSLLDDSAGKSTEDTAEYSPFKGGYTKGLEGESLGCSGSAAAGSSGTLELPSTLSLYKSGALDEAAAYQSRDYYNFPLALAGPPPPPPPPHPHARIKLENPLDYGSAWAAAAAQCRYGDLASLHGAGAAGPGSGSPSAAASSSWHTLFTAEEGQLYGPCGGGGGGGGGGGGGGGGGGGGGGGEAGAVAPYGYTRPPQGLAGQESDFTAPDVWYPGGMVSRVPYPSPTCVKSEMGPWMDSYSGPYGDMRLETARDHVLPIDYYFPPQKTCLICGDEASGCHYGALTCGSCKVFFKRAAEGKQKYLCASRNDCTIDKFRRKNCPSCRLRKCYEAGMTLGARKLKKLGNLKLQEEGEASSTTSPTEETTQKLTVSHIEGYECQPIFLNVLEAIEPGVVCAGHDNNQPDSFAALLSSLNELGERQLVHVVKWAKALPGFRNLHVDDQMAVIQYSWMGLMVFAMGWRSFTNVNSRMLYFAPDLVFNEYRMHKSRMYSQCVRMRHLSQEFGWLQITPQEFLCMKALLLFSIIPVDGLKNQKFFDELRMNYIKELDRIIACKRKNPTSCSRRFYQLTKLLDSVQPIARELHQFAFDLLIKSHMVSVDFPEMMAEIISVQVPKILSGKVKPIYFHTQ
As to the kind of experiment: AR binding assay. Particulars: 3H-R1881 1 nM, 4° C. 24 hrs. As to the method:
AR binding assay: To assess AR binding, test compound (top dose 10 μM, 4 fold serial dilution, 8 point dose response) and control (progesterone) were transferred to the assay plate. Cytosol from LnCaP cells was added to the plate, followed by addition of radiolabeled ^3H-R1881 at a final concentration of 1 nM. The plate was sealed, and the reaction was incubated at 300 rpm at 4° C. for 24 hrs. Radioligand absorption buffer (10 mM Tris-HCl, pH 7.4; 1.5 mM EDTA; 1 mM DTT; 0.25% charcoal; 0.0025% dextran) was then added to the plate, mixed, and incubated at 4° C. for 15 minutes. The plate was then centrifuged at 3000 rpm for 30 minutes at 4° C. The supernatant was transferred to the scint-tube and Tri-carb was used for scintillation counting.

Assay [2] concerns the target T2, full-length androgen receptor (HEK293 cells stably expressing) (Homo sapiens, UniProt P10275).
T2 construct: HEK293 cells stably expressing the full-length androgen receptor were seeded; expressed in transfected cells
T2 sequence (P10275 1-920): T1 sequence (P10275 1-920 T878A) with A878T
As to the kind of experiment: AR antagonism assay. In kind it is cell-based. Particulars: testosterone 1 nM, 20 h, Steady-glo. How it is done: AR antagonism assay: To evaluate AR antagonist activity, test compound was added to the assay plate (top dose 10 μM, 3 fold serial dilution, 10 point dose response). HEK293 cells stably expressing the full-length androgen receptor were seeded at a density of 20000 cells/well in the assay plate. The assay plate was then incubated at room temperature for 10 minutes and at 37° C., 5% CO2 for 20 minutes. Testosterone is added to the assay plate at 1 nM final concentration and the assay plate incubated at 37° C., 5% CO2 for 20 h. After the incubation period, Steady-glo was added to the assay plate and mixed at room temperature for 20 minutes on an orbital shaker, before reading out on the EnVision plate reader.

The next assay deals with LNCap cells. Put plainly: Cell viability assay LNCap. The following applies: Homo sapiens, 144 h, 6 days, CellTiterGlo. In kind it is cell-based. How it is done: (§1) Cell viability assay: LNCap, 22Rv1, MCF7, MDAMB361, T47D, and IEC6 cells were seeded at a density of 500-2000 cells/well in 96 well plates, and a ‘T0’ (timepoint 0) was included along with the assay plate. The plates were then incubated at 37° C., 5% CO2 in a cell culture incubator overnight. On the next day, the ‘T0’ plate was assayed using CellTiterGlo (Promega, Inc) according to the manufacturer's instructions. The appropriate compounds were diluted in DMSO and added to the assay plate (final DMSO concentration of 0.1-0.2%) on the next day. The assay plates were incubated for 6 days at 37° C., 5% CO2. After the incubation period, the plates were assayed using CellTiterGlo (Promega, Inc) according to the manufacturer's instructions and luminescence was read on the EnVision plate reader. Inhibition of the tested compounds was determined by the following formula: Inhibition rate (%)=(1−(RLU compound−RLU day0)/(RLU control−RLU day0))*100%. GraphPadPrism was used to analyze the data and determine GI50/IC50 values.

The next assay deals with 22Rv1 cells. As to the kind of experiment: Cell viability assay 22Rv1. In kind it is cell-based. The following applies: Homo sapiens, 22Rv1, 144 h; 6 days, CellTiterGlo. As to the method: as §1
Background: ATP-based viability assays read luminescence as a measure of living cells.

A further assay relates to IEC6 cells. As to the kind of experiment: Cell viability assay IEC6. The assay is classed as cell-based. Particulars: Rattus norvegicus, IEC-6, 144 h; 6 days, CellTiterGlo. How it is done: as §1

Numbering of substitutions follows the chain as printed.

What is called IC50 is the concentration needed to halve the response being measured. In general, GI50 refers to the concentration at which growth is held to half of that of the control. For `CCc1cc2ncc(CN3CCN(CC4CCN(c5ccc(C(=O)N[C@H]6CC[C@H](N(C)c7ccc(C#N)c(Cl)c7)CC6)nn5)CC4)CC3)cc2[nH]c1=O` [Compound 67, N-((1R,4R)-4-((3-Chloro-4-cyanophenyl)(methyl)amino)cyclohexyl)-6-(4-((4-((7-ethyl-6-oxo-5,6-dihydro-1,5-naphthyridin-3-yl)methyl)piperazin-1-yl)methyl)piperidin-1-yl)pyridazine-3-carboxamide], the IC50 in assay [1] was less than 100 nM; in assay [2], more than 10000 nM; in the assay with IEC6 cells, more than 30000 nM. Moreover, the GI50 in the assay with LNCap cells and in the assay with 22Rv1 cells was not above 500 nM each time.

As to `CCc1cc2ncc(CN3CCN(c4ccc(-c5nnc([C@H](Nc6ccc(C#N)c(Cl)c6)[C@H](C)O)o5)cc4)CC3)cc2[nH]c1=O` [Compound 63, 2-Chloro-4-(((1R,2S)-1-(5-(4-(4-((7-ethyl-6-oxo-5,6-dihydro-1,5-naphthyridin-3-yl)methyl)piperazin-1-yl)phenyl)-1,3,4-oxadiazol-2-yl)-2-hydroxypropyl)amino)benzonitrile], the IC50 in assay [1] was 100 to 1000 nM; in assay [2], more than 10000 nM; in the assay with IEC6 cells, more than 30000 nM. The GI50 with LNCap cells was in the range of 500 to 5000 nM; in the assay with 22Rv1 cells, 5000 to 30000 nM.

On to `CCc1cc2ncc(CN3CCN(CC4CCN(c5ccc(C(=O)N[C@H]6C(C)(C)[C@H](Oc7ccc(C#N)c(Cl)c7)C6(C)C)nn5)CC4)CC3)cc2[nH]c1=O` [Compound 13, N-((1r,3r)-3-(3-Chloro-4-cyanophenoxy)-2,2,4,4-tetramethylcyclobutyl)-6-(4-((4-((7-ethyl-6-oxo-5,6-dihydro-1,5-naphthyridin-3-yl)methyl)piperazin-1-yl)methyl)piperidin-1-yl)pyridazine-3-carboxamide], for which the IC50 is less than 100 nM in assay [1], more than 10000 nM in assay [2] and 500 to 5000 nM in the assay on IEC6 cells. Also, the GI50 in the assay with LNCap cells and in the assay on 22Rv1 cells was 500 to 5000 nM in each case.

On to `CCc1cc2ncc(CN3CCN(CC4CCN(c5ccc(C(=O)N[C@H]6CC[C@H](Oc7ccc(C#N)c(Cl)c7)CC6)nn5)CC4)CC3)cc2[nH]c1=O` [Compound 4, N-((1r,4r)-4-(3-Chloro-4-cyanophenoxy)cyclohexyl)-6-(4-((4-((7-ethyl-6-oxo-5,6-dihydro-1,5-naphthyridin-3-yl)methyl)piperazin-1-yl)methyl)piperidin-1-yl)pyridazine-3-carboxamide], for which the IC50 in assay [1] was less than 100 nM; in assay [2] it was more than 10000 nM; in the assay with IEC6 cells, more than 30000 nM. In addition, the GI50 in the assay with LNCap cells and in the assay with 22Rv1 cells was not above 500 nM in each case.

Take `CCc1cc2ncc(CN3CCN(c4ccc(C(=O)NCC5CCN(c6ccc(C(=O)N[C@H]7CC[C@H](Oc8ccc(C#N)c(Cl)c8)CC7)nn6)CC5)nc4)CC3)cc2[nH]c1=O` [Compound 1, N-((1r,4r)-4-(3-Chloro-4-cyanophenoxy)cyclohexyl)-6-(4-((5-(4-((7-ethyl-6-oxo-5,6-dihydro-1,5-naphthyridin-3-yl)methyl)piperazin-1-yl)picolinamido)methyl)piperidin-1-yl)pyridazine-3-carboxamide]: the IC50 is 100 to 1000 nM in assay [1], more than 10000 nM in assay [2] and more than 30000 nM in the assay on IEC6 cells. Besides, the GI50 in the assay on LNCap cells is not above 500 nM; in the assay on 22Rv1 cells, 500 to 5000 nM.
